PMC7076650, “Co-Encapsulation of Mitoxantrone and β-Elemene in Solid Lipid Nanoparticles to Overcome Multidrug Resistance in Leukemia” (Pharmaceutics, 2020)
≈ marks a conversion by molar mass, not a printed value. Read-outs that look alike come from different tables or passages of the source.

Tests used:
K562/A02 cells = tested on: K562/A02 cells; design: method as in PMID 29453043; settings: cited from earlier work
K562/DOX cells [1] = test: Intracellular ATP production assay; assay type: cell-based; settings: 8 h at 37 °C
Experimental: An ATP assay kit was used to measure the intracellular ATP. K562/DOX cells at a density of 1 × 10^5 cells/well were seeded and cultured in 12-well plates and incubated for 24 h. The cells were then incubated with fresh medium containing MTO, MTO/βE, MTO-SLNs, and MTO/βE-SLNs for 8 h at 37 °C. The cell ATP content was determined based on the manufacturer’s protocol. Briefly, the cells were collected and lysed by 200 μL of lysis solution to obtain the cell lysate, followed by centrifugation at 12,000× g for 5 min at 4 °C. Next, 20 μL of the supernatant of each sample was mixed with 100 μL of ATP testing solution in a black 96-well plate, and kept for 10 min. A microplate luminometer (Luminoskan, Thermo Scientific, Waltham, MA, USA) was used to measure the luminescence intensity. The raw data were converted to ATP concentrations using the standard ATP calibration.

K562/DOX cells [2] = test: MTT cytotoxicity of MTO formulations in K562/DOX cells; assay type: cell-based; settings: for IC50: Homo sapiens, K562/DOX cells, n = 3
Experimental: (§1) A cytotoxicity study of MTO, MTO/βE, MTO-SLNs, and MTO/βE-SLNs was also carried out by MTT assay in both K562 and K562/DOX cells lines. K562 cells and K562/DOX cells were seeded in a 96-well plate at a density of 5 × 10^3 cells/well and incubated for 48 h. Then, the cells were treated with MTO, MTO/βE, MTO-SLNs, and MTO/βE-SLNs at different doses (total amount of MTO in SLNs: 0.01, 0.1, 1, 2.5, 5, and 10 μg/mL in K562 cells and 0.1, 1, 10, 20, 40, and 80 μg/mL in K562/DOX cells for 48 h. After 48 h of incubation, cells were washed twice with cold PBS then incubated again for 4 h with 20 µL of MTT solution (5 mg/mL) added to each well. In order to solubilize the formazan crystals, 150 μL of DMSO per well was added to replace the medium. Finally, a Microplate Reader (Biotech) was used to measure the UV absorbance intensity at 570 nm. Each measurement was performed in triplicate. The cell viability percentage was evaluated using the following equation [4, 10]: Cell Viability (%)=ODsample /ODcontrol×100% where ODsample stands for the absorbance intensity of the cells treated with MTO, MTO/βE, MTO-SLNs, and MTO/βE-SLNs, while ODControl is the absorbance intensity of the untreated cells. The 50% inhibition concentrations (IC50) of different agents were calculated by Graph Pad Prism 5.0 software. All experiments were in triplicate and the results were given as means ± SD.
(§2) The different effects of drug formulations on K562/DOX were evaluated in the MDR reversal capacities through the index of drug resistance (IDR) and index of reversal of drug resistance (IRDR). IDR and IRDR were calculated as follows: IDR=IC50of other formulation against K562/DOX cells/IC50of MTO against K562 CellsIRDR=IC50of MTO against K562 cells /IC50of other formulation against K562/DOX cells

K562/DOX cells [3] = test: MTT assay of combinatorial effects of MTO and βE in different mass ratios; assay type: cell-based; settings: Homo sapiens, 48 h of incubation
Experimental: The combinatorial effects of MTO and βE in different ratios (w/w) were assessed against K562/DOX through MTT assay. With a density of 5 × 10^3 cells/well, K562/DOX cells were seeded in 96-well plates and incubated for 48 h, then treated with different concentrations of MTO dissolved in the free medium of RPMI-1640, βE dissolved in the mixture of (RPMI-1640 and 0.5% DMSO), and different combination mass ratios of MTO/βE (10:1, 5:1, 2:1, 1:1, 1:2, 1:5, and 1:10 w/w). After 48 h of incubation, cells were washed twice with cold PBS, and then incubated again for 4 h with 20 µL of MTT solution (5 mg/mL) added to each well. In order to solubilize the formazan crystals, 150 μL of DMSO per well was added to replace the medium. Finally, a Microplate Reader (Biotech, Winooski, VT, USA) was used to measure the UV absorbance intensity at 570 nm. Each measurement was performed in triplicate. The cell viability percentage was evaluated using the following equation: Cell Viability (%)=ODsample /ODcontrol×100% where ODSample stands for the optical density (absorbance intensity) of the cells treated with MTO, βE, or MTO in combination with βE, while ODControl is the absorbance intensity of the untreated cells. […] The synergistic effect of different combinations of MTO and βE was assessed through the calculation of combination index (CI) using the equation of Chou and Talalay. […]

K562 cells = test: MTT cytotoxicity of MTO formulations in K562 cells; assay type: cell-based; settings: n = 3; for IC50: Homo sapiens, K562, 48 h
Experimental: as §1, §2

[4] = Pharmacokinetics after intravenous administration; assay type: in vivo, SD rats; settings: rats; for AUC(0-t) / Cmax / half-life: male, Sprague-Dawley (SD), rat, plasma; for time post injection after which no drug was observed in plasma: free drug
Experimental: All the preparations were administered intravenously into the tail vein at a dose of 2 mg/kg (n = 6) for MTO and 4 mg/kg (n = 6) for βE. The blood samples were taken with a heparinized syringe at 0.5, 1, 2, 4, 6, 8, 12, and 24 h.

K562/DOX cells [5] = test: Drug efflux study (DOX retained, flow cytometry), K562/DOX cells; assay type: cell-based; settings: 10 μg/mL DOX loaded 4 h at 37 °C, then free medium
Experimental: In order to determine DOX efflux, K562 and K562/DOX cells were seeded and incubated in 12-well plates (1 × 10^5 cells/well). Different DOX formulations diluted with fresh medium to a concentration of 10 μg/mL were incubated with K562 and K562/DOX cells for 4 h at 37 °C. Subsequently, the cells were washed three times with ice-cold PBS, and then incubated with free medium at another 0.5, 1, 2, and 4 h. Ice-cold PBS was used to wash the cells at the end of each incubation time. The amounts of DOX retained in cells were determined by flow cytometry. The investigation was carried out in triplicate.

[6] = tested on: K562/DOX xenografts tumors; test: In vivo antitumor activity in K562/DOX xenograft tumor model; design: species or system BALB/c nude mice; settings: during treatment, compared with saline
Experimental: Mice bearing K562/DOX xenografts tumors were used to evaluate different MTO formulations through an in vivo antitumor efficacy study. K562/DOX cells at a concentration of 1 × 10^7 cells/mice with a volume of 200 μL were injected into the left axilla of BALB/c nude mice. After inoculation of cells, the growth of tumor was observed every two days by measuring the diameter of tumor with Vernier caliper. The tumor volume was calculated as (L × W^2)/2, where L and W are the tumor length and width, respectively. The anti-tumor evaluation was started when tumor volume reached about 100 mm^3, and this day was designated as day 0. Mice were randomly divided in five groups of six: Saline, MTO, MTO/βE, MTO-SLNs, and MTO/βE-SLNs (MTO dosage: 2 mg/kg and βE dosage: 4 mg/kg). The injections were carried out on days 0, 3, 6, 9, and 12 via the tail vein. In order to evaluate the treatment efficacy and safety, mice were sacrificed, and then tumors, heart, lung, liver, kidney, and spleen were dissected and fixed in 4% paraformaldehyde. In order to observe the pathological changes in different tissues, samples were cut and stained with hematoxylin and eosin (H&E) for histological analyses. An optical microscope (Leica DMI6000 B, Wetzlar, Germany) was used to take different photos. […]

## ethyl lucidenates-A
K562/A02 cells
  reversal of resistance of K562/A02 cells to vincristine: 7.59 fold

## C=CC1(C)CCC(C(=C)C)CC1C(=C)C (stereo not shown) [βE, 1-methyl-1-vinyl-2,4-diisopropenyl-cyclohexane]
K562/DOX cells [1]
  effect on intracellular ATP: significant inhibitory capacity
K562/DOX cells [2]; 48 h
  IC50: 140 µg/mL (≈ 687 µM)
K562/DOX cells [3]; n = 3, concentration of βE alone or in the combination, read-out: IC50 βE
  IC50: 140 µg/mL
K562 cells
  IC50: 122 µg/mL (≈ 598 µM)
[4]; 4 mg/kg βE, n = 6, read-out: AUC0–24 of βE
  AUC(0-t): 4860 ± 1760 ng·h/mL
[4]; 4 mg/kg βE, n = 6, read-out: Cmax of βE
  Cmax: 6680 ± 1210 ng/mL
[4]; 4 mg/kg βE, n = 6, read-out: T1/2 of βE (converted)
  half-life: 2.9 ± 0.45 h
[4]
  time post injection after which no drug was observed in plasma: 12 h

## COc1cccc2c1C(=O)c1c(O)c3c(c(O)c1C2=O)C[C@@](O)(C(=O)CO)C[C@@H]3O[C@H]1C[C@H](N)[C@H](O)[C@H](C)O1 [DOX, doxorubicin]
K562/DOX cells [5]
  DOX that underwent efflux: about 90%

## Cl.Cl.O=C1c2c(O)ccc(O)c2C(=O)c2c(NCCNCCO)ccc(NCCNCCO)c21 [MTO, 1,4-dihydroxy-5,8-bis[[2-[(2-hydroxyethyl)amino]ethyl]amino] anthraquinone dihydrochloride]
[6]
  body weight of mice: decreased remarkably
K562/DOX cells [2]; 48 h
  IC50: 48.2 µg/mL
K562/DOX cells [2]; concentration of MTO 10 μg/mL, 48 h
  cell survival rate of K562/DOX cells: 81.43%
K562/DOX cells [2]; concentration of MTO 80 μg/mL, 48 h
  survival ratio in K562/DOX cells: 24.06%
K562/DOX cells [2]; from IC50 in K562/DOX and K562 cells
  IDR (index of drug resistance): 9.59
K562/DOX cells [3]; n = 3, concentration of MTO alone or in the combination, read-out: IC50 MTO
  IC50: 48.2 µg/mL
K562 cells; 48 h
  IC50 K562: 5.025 µg/mL
K562 cells
  IC50: 5.02 µg/mL
[4]; 2 mg/kg MTO, n = 6, read-out: AUC0–24 of MTO
  AUC(0-t): 1180 ± 150 ng·h/mL
[4]; 2 mg/kg MTO, n = 6, read-out: Cmax of MTO
  Cmax: 3450 ± 580 ng/mL
[4]; 2 mg/kg MTO, n = 6, read-out: T1/2 of MTO (converted)
  half-life: 1.53 ± 0.33 h
[4]
  time post injection after which no drug was observed in plasma: 6 h
